These results are taken from US20230142647A1, “METHOD OF TREATING CANCER OR A BLOOD DISORDER” (priority 2021, published 2023).

Assay [1] relates to human NPM1/FLT3-mutated AML cells. Description: single agent survival experiment in PDX model with NPM1/FLT3 mutations (Example 2). Format: in vivo, mice. The conditions noted are these: 3x/wk from day 24; for survival benefit compared to vehicle (in words): Valtrate 10 mg/kg, CAPE 50 mg/kg, selinexor 7 mg/kg by oral gavage. The protocol:
FIG. 4A. Experiment plan diagram. […] THU inhibits cytidine deaminase(CDA) to prolong 5-AC half-life. Treatment was initiated at day 24 and then repeated three times a week. Mice were humanly euthanized after becoming moribund or losing 15% of their initial weight in accordance with institutional guidelines. (FIG. 4B) Survival presented as Kaplan-Meier survival analysis graph from inoculation time to distress. P values and log-rank test are calculated and plotted. […] Mean±SD.
Immunodeficient NSG mice are xenotransplanted with human NPM1/FLT3-mutated AML cells.
On day 24 mice were assigned for treatment groups (n=5 per group). The treatment groups are 1) Vehicle, 2) Valtrate 10 mg/kg by oral gavage, 3) CAPE 50 mg/kg by oral gavage, 4) selinexor 7 mg/kg by oral gavage, 5) 5-AC2 mg/kg subcutaneously, and 6) 5-AC(2 mg/kg) subcutaneously+THU (20 mg/kg) intraperitoneally. The addition of THU extends 5-AC half-life, by inhibiting the enzyme cytidine deaminase(CDA), which degrades 5-AC. Treatment started on day 24, 3×/wk. (FIG. 4A). […] Groups are compared with vehicle and with each other. To monitor progress periodic blood counts are analyzed along with distress signs.

In assay [2] the test system is AML with NPM1/FLT3 mutations cells. Description: survival study of combinations in high tumor load PDX model of NPM1/FLT3 mutations (Example 4). Format: in vivo, mice. Particulars: at distress point or day 200.
From the text: FIG. 9A Treatment groups illustration: Primary acute myelogenous leukemia (AML) patient cells with Nucleophosmin 1 and fins-like tyrosine kinase-3 mutations (NPM1/FLT3) were xenotranplanted into immunodeficient Nod-SCID-IL-2Rgamma-null mice (NSG, Jackson Laboratory) by injecting 1×10^6 cells IV (n=5 per group) at day 0 (D0). Engraftment D28≥45% bone engraftment was confirmed in 3 randomly selected mice. At D28 mice were divided in to five treatment groups (n=5 per group), 1) Vehicle, 2) 5-AC(2 mg/kg)/THU(20 mg/kg), 3) 5-AC(2 mg/kg)/THU(20 mg/kg)/selinexor (5 mg/kg), 4) 5-AC(2 mg/kg)/THU(20 mg/kg)/CAPE (50 mg/kg) and 5) 5-AC(2 mg/kg)/THU(20 mg/kg)/Valtrate(10 mg/kg). […]
Peripheral blood analysis of WBCs, hemoglobin Hb, and platelets count. peripheral blood obtained by tail vein phlebotomy and serial blood counted on day 0, 45, 100, 140 and 200. And analyzed by HemaVet blood lab. […]
An image analysis to evaluate tumor burden of the spleens, was by histologic identification of relatively large infiltrating AML cells, replacing normal splenic structure by H&E staining of spleen sections. Image analysis of cell counts were plotted and quantified. […]
Furthermore, efficacy vs toxicity is best assessed by serial peripheral blood analysis of WBCs, hemoglobin Hb, and platelets. […] Blood samples were analyzed by HemaVet blood lab. […]
Another assay concerns HL-60 cell line. Description: AML HL-60 cell line cell counts and morphologic differentiation. Format: cell-based. The conditions noted are these: Valtrate 6 μM, CAPE 4 μM, 5-AC 2.5 μM, selinexor 20 nM, day 5.
The subject of the next assay is AML (NPM1-FLT3 and MLL). Format: in vivo.

Where two headings read alike, the source gives them in different places.

Method for HL-60 cell line: Cell counts obtained using automated counter, Mean±SD (3 experiments) cell morphology obtained from the same cell culture. P<0.01 significant, t test (2 sided). The small molecule agents were used in dosages: Valtrate (6 μM), CAPE (4 μM), 5-AC (2.5 μM), selinexor (20 nM) and in the combinations relative to vehicle. cell counts (day 0-5) and morphology (day 5). (FIG. 3A) Valtrate, 5-AC, and Valtrate+5-AC cell count and morphologic changes relative to vehicle and individual agents. (FIG. 3B) CAPE, 5-AC, and CAPE+5-AC cell counts day 0-5 and morphologic changes on day 5 relative to vehicle and individual agents. (FIG. 3C) Combinational groups of 5-AC+valtrate, 5-AC+CAPE, and 5-AC+selinexor morphologic development (day 5) are compared.
The low dosages were purposed for use in combination with low dose 5-AC, Such as to position AML cells in a state of hypomethylated accessible chromatin with increased nuclear transcription factors. cell counts and morphologic alterations were observed. Dosages for this purpose were: Valtrate (6 μM), CAPE (4 μM), 5-AC (2.5 μM), and for comparing with Selinexor (20 nM) the same dosages were used for combinations.

Consider `Nc1ncn([C@@H]2O[C@H](CO)[C@@H](O)[C@H]2O)c(=O)n1` [5-AC, 5-Azacytidine], for which the survival benefit result in assay [1] (5-AC 2 mg/kg subcutaneously, THU 20 mg/kg intraperitoneally) was “more than 25 days”. Also, the “femoral and tibial bone appearance (white = leukemia replacement, red/dark = functional hematopoiesis)” value in assay [2] is “White pale bones”.

For `O=C(/C=C/c1ccc(O)c(O)c1)OCCc1ccccc1` [CAPE, Caffeic Acid Phenethyl Ester], in the assay with HL-60 cell line, the “spindle shaped cells (terminal fate morphology)” value was “not observed”. Further, the “survival benefit compared to vehicle (in words)” value in assay [1] is recorded as “minimal”. Moreover, the “synergy in combination with 5-AC” value with AML (NPM1-FLT3 and MLL) (oral Valtrate 10 mg/kg 3x/wk or CAPE 50 mg/kg 3x/wk, in combination with 5-AC) is listed as “effective synergetic action”.

As for `O=C1NC(O)CCN1[C@@H]1O[C@H](CO)[C@@H](O)[C@H]1O` (stereo partly shown) [THU, Tetrahydrouridine], the “femoral and tibial bone appearance (white = leukemia replacement, red/dark = functional hematopoiesis)” value in assay [2] is “White pale bones”.

With `O=C(/C=C\n1cnc(-c2cc(C(F)(F)F)cc(C(F)(F)F)c2)n1)NNc1cnccn1` [selinexor], the “spindle shaped cells (terminal fate morphology)” value with HL-60 cell line is “not observed”. Also, the “survival benefit compared to vehicle (in words)” value in assay [1] was “minimal”.

Valtrate: the “survival benefit compared to vehicle (in words)” value in assay [1] is on record as “minimal”. Besides, the “synergy in combination with 5-AC” value with AML (NPM1-FLT3 and MLL) (mouse, in vivo) is “effective synergetic action”.
